# From ChEMBL document CHEMBL1142994, “Structure-based design, synthesis, and biological evaluation of potent and selective macrocyclic checkpoint kinase 1 inhibitors” (J Med Chem, 2007)
# Key:
# [1] = biological target: T1, Serine/threonine-protein kinase Chk1 (Homo sapiens, UniProt O14757); assay: Inhibition of recombinant Chk1
# T1 sequence (O14757 whole entry): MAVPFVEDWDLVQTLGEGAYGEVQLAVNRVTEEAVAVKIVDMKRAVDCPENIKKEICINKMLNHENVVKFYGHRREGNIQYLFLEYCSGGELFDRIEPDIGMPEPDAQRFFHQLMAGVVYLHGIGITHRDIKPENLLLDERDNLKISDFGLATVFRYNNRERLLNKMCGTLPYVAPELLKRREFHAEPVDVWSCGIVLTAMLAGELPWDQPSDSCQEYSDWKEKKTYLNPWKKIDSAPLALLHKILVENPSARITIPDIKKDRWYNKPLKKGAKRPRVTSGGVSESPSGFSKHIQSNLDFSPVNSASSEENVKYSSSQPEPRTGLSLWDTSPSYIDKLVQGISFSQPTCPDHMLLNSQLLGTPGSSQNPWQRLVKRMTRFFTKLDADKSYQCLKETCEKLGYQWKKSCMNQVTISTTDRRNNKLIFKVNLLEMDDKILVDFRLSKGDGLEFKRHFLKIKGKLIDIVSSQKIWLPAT
# [2] = biological target: T2, Serine/threonine-protein kinase Sgk1 (Homo sapiens, UniProt O00141); assay: Inhibition of SGK
# T2 sequence (O00141 whole entry): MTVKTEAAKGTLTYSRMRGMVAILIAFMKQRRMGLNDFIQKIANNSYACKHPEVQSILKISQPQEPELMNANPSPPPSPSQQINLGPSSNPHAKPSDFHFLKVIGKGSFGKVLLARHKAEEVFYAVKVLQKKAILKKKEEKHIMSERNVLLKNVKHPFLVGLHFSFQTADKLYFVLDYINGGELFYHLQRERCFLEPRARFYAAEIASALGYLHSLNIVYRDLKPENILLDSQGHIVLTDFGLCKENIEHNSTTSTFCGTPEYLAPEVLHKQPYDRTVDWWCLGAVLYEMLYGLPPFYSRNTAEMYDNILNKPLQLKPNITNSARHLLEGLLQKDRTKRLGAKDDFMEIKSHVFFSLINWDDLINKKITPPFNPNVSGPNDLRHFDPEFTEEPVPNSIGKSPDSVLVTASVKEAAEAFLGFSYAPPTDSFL
# [3] = biological target: T3, Calcium/calmodulin-dependent protein kinase type IV (Homo sapiens, UniProt Q16566); assay: Inhibition of Camk4
# T3 sequence (Q16566 whole entry): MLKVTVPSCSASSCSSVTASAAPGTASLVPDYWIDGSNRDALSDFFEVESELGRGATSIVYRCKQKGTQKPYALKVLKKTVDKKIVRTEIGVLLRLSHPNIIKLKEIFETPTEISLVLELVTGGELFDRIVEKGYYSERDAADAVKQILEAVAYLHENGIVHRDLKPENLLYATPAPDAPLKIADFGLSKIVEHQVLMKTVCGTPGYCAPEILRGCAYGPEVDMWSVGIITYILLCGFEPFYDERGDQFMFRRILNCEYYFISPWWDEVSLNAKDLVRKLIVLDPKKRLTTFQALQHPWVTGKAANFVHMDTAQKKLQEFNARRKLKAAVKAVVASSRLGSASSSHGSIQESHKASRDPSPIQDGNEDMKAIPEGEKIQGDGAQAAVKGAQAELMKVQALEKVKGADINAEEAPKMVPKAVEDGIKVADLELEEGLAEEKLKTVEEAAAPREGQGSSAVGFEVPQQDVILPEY
# [4] = biological target: T4, Mitogen-activated protein kinase 13 (Homo sapiens, UniProt O15264); assay: Inhibition of p38 delta
# T4 sequence (O15264 whole entry): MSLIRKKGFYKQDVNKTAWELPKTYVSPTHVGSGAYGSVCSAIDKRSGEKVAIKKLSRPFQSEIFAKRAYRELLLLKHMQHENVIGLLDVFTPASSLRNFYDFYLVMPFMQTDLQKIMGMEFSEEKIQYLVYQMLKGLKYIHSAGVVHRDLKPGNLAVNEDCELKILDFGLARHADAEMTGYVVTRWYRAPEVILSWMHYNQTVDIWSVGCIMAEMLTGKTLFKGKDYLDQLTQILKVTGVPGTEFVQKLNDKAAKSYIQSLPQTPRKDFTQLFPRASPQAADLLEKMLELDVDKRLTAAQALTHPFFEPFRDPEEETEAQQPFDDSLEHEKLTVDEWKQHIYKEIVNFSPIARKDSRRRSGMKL
# NCI-H1299 [5] = assay: Accumulation of H1299 cells in G2/M phase measured as cell cycle arrest by FACS assay; type: functional, cell-based, Homo sapiens
# HeLa [6] = assay: Cytotoxicity against HeLa cells in presence of doxorubicin by MTS assay; type: functional, cell-based, Homo sapiens
# HeLa [7] = assay: Cytotoxicity against HeLa cells by MTS assay; type: functional, cell-based, Homo sapiens
# NCI-H1299 [8] = assay: Inhibition of accumulation of H1299 cells in G2/M phase in presence of doxorubicin by FACS assay; type: functional, cell-based, Homo sapiens
# [9] = Homo sapiens, HeLa, read-out: EC50
smiles,measurement,setting,value
N#Cc1ncc2nc1OCCCCCOc1cc(NCc3c[nH]cn3)c(Cl)cc1NC(=O)N2,IC50,[1],0.231 µM
CC(C)CNc1cc2c(cc1Cl)NC(=O)Nc1cnc(C#N)c(n1)OCCCCCO2,IC50,[1],0.017 µM
CC(C)(O)C#Cc1cc2c(cc1Cl)NC(=O)Nc1cnc(C#N)c(n1)OCCCCCO2,IC50,[1],0.109 µM
CCN(CC)c1cc2c(cc1Cl)NC(=O)Nc1cnc(C#N)c(n1)OCCCCCO2,IC50,[1],0.248 µM
N#Cc1ncc2nc1OCCCCCOc1cc(NCc3ccccc3)c(Cl)cc1NC(=O)N2,IC50,[1],0.266 µM
N#Cc1ncc2nc1OCCCCCOc1cc(OCc3ccncc3)c(Cl)cc1NC(=O)N2,IC50,[1],0.012 µM
N#Cc1ncc2nc1OCCCCCOc1cc(OCCCO)c(Cl)cc1NC(=O)N2,Ki,[2],> 10 µM
same,Ki,[3],> 10 µM
same,Ki,[4],> 10 µM
COCCOc1cc2c(cc1Cl)NC(=O)Nc1cnc(C#N)c(n1)OCCCCCO2,IC50,[1],0.005 µM
CC(C)CCCOc1cc2c(cc1Cl)NC(=O)Nc1cnc(C#N)c(n1)OCCCCCO2,IC50,[1],> 10 µM
N#Cc1ncc2nc1OCCCCCOc1cc(NC(=O)CCNC3CCCC3)c(Cl)cc1NC(=O)N2,IC50,[1],0.002 µM
N#Cc1ncc2nc1OCCCCCOc1cc(OCCO)c(Cl)cc1NC(=O)N2,EC50,"NCI-H1299 [5]; Homo sapiens, NCI-H1299",> 10 µM
same,EC50,"HeLa [6]; Homo sapiens, HeLa",3.01 µM
same,EC50,HeLa [7]; [9],> 59 µM
same,EC50,"NCI-H1299 [8]; Homo sapiens, NCI-H1299",0.7 µM
CNc1cc2c(cc1Cl)NC(=O)Nc1cnc(C#N)c(n1)OCCCCCO2,IC50,[1],0.002 µM
CN(C)CCOc1cc2c(cc1Cl)NC(=O)Nc1cnc(C#N)c(n1)OCCCCCO2,IC50,[1],0.001 µM
O=C1Nc2cncc(n2)OCCCCCOc2ccc(Cl)cc2N1,EC50,"NCI-H1299 [5]; Homo sapiens, NCI-H1299",> 10 µM
same,EC50,"HeLa [6]; Homo sapiens, HeLa",37.8 µM
same,IC50,[1],0.01 µM
same,EC50,HeLa [7],>59 µM
same,EC50,"NCI-H1299 [8]; Homo sapiens, NCI-H1299",7.5 µM
N#Cc1ncc2nc1OCCCCCOc1ccc(Cl)cc1NC(=O)N2,EC50,"NCI-H1299 [5]; Homo sapiens, NCI-H1299",> 10 µM
same,EC50,"HeLa [6]; Homo sapiens, HeLa",3.04 µM
same,IC50,[1],0.007 µM
same,EC50,HeLa [7],57.6 µM
same,EC50,"NCI-H1299 [8]; Homo sapiens, NCI-H1299",2.7 µM
N#Cc1ncc2nc1OCCCCCOc1cc(O)c(Cl)cc1NC(=O)N2,EC50,"HeLa [6]; Homo sapiens, HeLa",1.9 µM
same,IC50,[1],0.006 µM
same,EC50,HeLa [7]; [9],> 59 µM
N#Cc1ncc2nc1OCCCCCOc1cc(NCc3ccncc3)c(Cl)cc1NC(=O)N2,EC50,NCI-H1299 [5]; nci-h1299,> 10 µM
same,EC50,HeLa [6]; hela,1.4 µM
same,IC50,[1],0.013 µM
same,EC50,"HeLa [7]; hela, read-out: EC50",> 59 µM
same,EC50,NCI-H1299 [8]; nci-h1299,1.2 µM
CC(C)Oc1cc2c(cc1Cl)NC(=O)Nc1cnc(C#N)c(n1)OCCCCCO2,IC50,[1],0.013 µM
N#Cc1ncc2nc1OCCCCCOc1cc(NCc3cccnc3)c(Cl)cc1NC(=O)N2,EC50,NCI-H1299 [5]; nci-h1299,> 10 µM
same,EC50,HeLa [6]; hela,1.6 µM
same,IC50,[1],0.012 µM
same,EC50,"HeLa [7]; hela, read-out: EC50",> 59 µM
same,EC50,NCI-H1299 [8]; nci-h1299,0.33 µM
CN(C)c1cc2c(cc1Cl)NC(=O)Nc1cnc(C#N)c(n1)OCCCCCO2,IC50,[1],0.007 µM
N#Cc1ncc2nc1OCCCCCOc1cc(CCCO)c(Cl)cc1NC(=O)N2,Ki,[2],> 10 µM
same,EC50,"NCI-H1299 [5]; Homo sapiens, NCI-H1299",> 10 µM
same,Ki,[3],> 10 µM
same,EC50,"HeLa [6]; Homo sapiens, HeLa",0.86 µM
same,EC50,HeLa [7]; [9],28.7 µM
same,EC50,"NCI-H1299 [8]; Homo sapiens, NCI-H1299",0.19 µM
N#Cc1ncc2nc1OCCCCCOc1cc(N(CCO)CCO)c(Cl)cc1NC(=O)N2,IC50,[1],0.004 µM
N#Cc1ncc2nc1OCCCCCOc1cc(NCc3cnco3)c(Cl)cc1NC(=O)N2,IC50,[1],0.007 µM
COCCOCCOc1cc2c(cc1Cl)NC(=O)Nc1cnc(C#N)c(n1)OCCCCCO2,IC50,[1],0.009 µM
CS(=O)(=O)Nc1cc2c(cc1Cl)NC(=O)Nc1cnc(C#N)c(n1)OCCCCCO2,Ki,[2],> 10 µM
same,EC50,"NCI-H1299 [5]; Homo sapiens, NCI-H1299",> 10 µM
same,Ki,[3],> 10 µM
same,EC50,"HeLa [6]; Homo sapiens, HeLa",2.7 µM
same,Ki,[4],> 10 µM
same,EC50,HeLa [7]; [9],> 59 µM
same,EC50,"NCI-H1299 [8]; Homo sapiens, NCI-H1299",1.6 µM
N#Cc1ncc2nc1OCCCCCOc1cc(OCCCN)c(Cl)cc1NC(=O)N2,IC50,[1],0.001 µM
N#Cc1ncc2nc1OCCCCCCOc1ccc(Cl)cc1NC(=O)N2,IC50,[1],0.028 µM
N#Cc1ncc2nc1OCCCCCOc1cc(OCc3ccccn3)c(Cl)cc1NC(=O)N2,IC50,[1],0.063 µM
CC(O)C#Cc1cc2c(cc1Cl)NC(=O)Nc1cnc(C#N)c(n1)OCCCCCO2 (stereo not drawn),IC50,[1],0.026 µM
CCOc1cc2c(cc1Cl)NC(=O)Nc1cnc(C#N)c(n1)OCCCCCO2,IC50,[1],0.006 µM
N#Cc1ncc2nc1OCCCCCOc1cc(NCc3cncs3)c(Cl)cc1NC(=O)N2,EC50,"NCI-H1299 [5]; Homo sapiens, NCI-H1299",> 10 µM
same,EC50,"HeLa [6]; Homo sapiens, HeLa",1.2 µM
same,IC50,[1],0.006 µM
same,EC50,HeLa [7]; [9],> 59 µM
same,EC50,"NCI-H1299 [8]; Homo sapiens, NCI-H1299",0.11 µM
CCCCNc1cc2c(cc1Cl)NC(=O)Nc1cnc(C#N)c(n1)OCCCCCO2,IC50,[1],0.015 µM
N#Cc1ncc2nc1OCCCCCOc1cc(OCc3cccnc3)c(Cl)cc1NC(=O)N2,IC50,[1],0.009 µM
CC(=O)Nc1cc2c(cc1Cl)NC(=O)Nc1cnc(C#N)c(n1)OCCCCCO2,IC50,[1],0.007 µM
N#Cc1ncc2nc1OCCCCCOc1cc(OCCn3ccnc3)c(Cl)cc1NC(=O)N2,IC50,[1],0.003 µM
N#Cc1ncc2nc1OCCCCCOc1cc(N)c(Cl)cc1NC(=O)N2,EC50,"NCI-H1299 [5]; Homo sapiens, NCI-H1299",7.6 µM
same,EC50,"HeLa [6]; Homo sapiens, HeLa",0.43 µM
same,IC50,[1],0.003 µM
same,EC50,HeLa [7]; [9],> 59 µM
same,EC50,"NCI-H1299 [8]; Homo sapiens, NCI-H1299",0.24 µM
N#Cc1ncc2nc1OCCCCCOc1cc(C#CCO)c(Cl)cc1NC(=O)N2,IC50,[1],0.01 µM
CC(C)CCOc1cc2c(cc1Cl)NC(=O)Nc1cnc(C#N)c(n1)OCCCCCO2,IC50,[1],1.06 µM
N#Cc1ncc2nc1OCCCCCOc1cc(N3CCCCC3)c(Cl)cc1NC(=O)N2,IC50,[1],0.139 µM
Cn1cncc1CNc1cc2c(cc1Cl)NC(=O)Nc1cnc(C#N)c(n1)OCCCCCO2,IC50,[1],0.002 µM
CN(C)CC(=O)Nc1cc2c(cc1Cl)NC(=O)Nc1cnc(C#N)c(n1)OCCCCCO2,IC50,[1],0.001 µM
CCNc1cc2c(cc1Cl)NC(=O)Nc1cnc(C#N)c(n1)OCCCCCO2,IC50,[1],0.004 µM
N#Cc1ncc2nc1OCCCCCOc1cc(NCCO)c(Cl)cc1NC(=O)N2,IC50,[1],0.002 µM
N#Cc1ncc2nc1OCCCCCOc1cc(NCc3ccsc3)c(Cl)cc1NC(=O)N2,IC50,[1],0.162 µM
N#Cc1ncc2nc1OCCCCOc1ccc(Cl)cc1NC(=O)N2,EC50,"NCI-H1299 [5]; Homo sapiens, NCI-H1299",> 10 µM
same,EC50,"HeLa [6]; Homo sapiens, HeLa",3.08 µM
same,IC50,[1],0.006 µM
same,EC50,HeLa [7],57.6 µM
CCN(CC)CC#Cc1cc2c(cc1Cl)NC(=O)Nc1cnc(C#N)c(n1)OCCCCCO2,IC50,[1],0.002 µM
N#Cc1ncc2nc1OCCCCCOc1cc(CC(O)CO)c(Cl)cc1NC(=O)N2 (stereo not drawn),IC50,[1],0.005 µM
CC(C)Nc1cc2c(cc1Cl)NC(=O)Nc1cnc(C#N)c(n1)OCCCCCO2,IC50,[1],0.011 µM
